For this assay, the target named is T1, cholinesterase (Rattus norvegicus, UniProt P37136).
T1 construct: The S₁ fraction of a cerebral cortex homogenate from male Wistar rats was used as the cholinesterase source; from tissue; host or cells: S1 fraction of cerebral cortex homogenate, male Wistar rats
The assay is described as follows: Anticholinesterase activity using (acetyl-[³H])-acetylcholine as substrate. The assay is classed as biochemical, male Wistar rats. The method, then: The anticholinesterase activity of the compound of the invention was evaluated using (acetyl-[³H])-acetylcholine. The S₁ fraction of a cerebral cortex homogenate from male Wistar rats was used as the cholinesterase source, (acetyl-[³H])-acetylcholine as the substrate and the test compound of the invention as the test substance. The incubation was carried out for 30 minutes and after the reaction was terminated, the system was shaken with a toluene scintillator to thereby transfer [³H]-acetic acid into the toluene layer. The radioactivity in the toluene layer was then measured with a liquid scintillation counter to estimate the anticholinesterase activity of the test compound.

Counter-ions that a name gives are not always drawn. Like-named read-outs stand apart in the source and are kept apart here.

T1 sequence (P37136 32-614): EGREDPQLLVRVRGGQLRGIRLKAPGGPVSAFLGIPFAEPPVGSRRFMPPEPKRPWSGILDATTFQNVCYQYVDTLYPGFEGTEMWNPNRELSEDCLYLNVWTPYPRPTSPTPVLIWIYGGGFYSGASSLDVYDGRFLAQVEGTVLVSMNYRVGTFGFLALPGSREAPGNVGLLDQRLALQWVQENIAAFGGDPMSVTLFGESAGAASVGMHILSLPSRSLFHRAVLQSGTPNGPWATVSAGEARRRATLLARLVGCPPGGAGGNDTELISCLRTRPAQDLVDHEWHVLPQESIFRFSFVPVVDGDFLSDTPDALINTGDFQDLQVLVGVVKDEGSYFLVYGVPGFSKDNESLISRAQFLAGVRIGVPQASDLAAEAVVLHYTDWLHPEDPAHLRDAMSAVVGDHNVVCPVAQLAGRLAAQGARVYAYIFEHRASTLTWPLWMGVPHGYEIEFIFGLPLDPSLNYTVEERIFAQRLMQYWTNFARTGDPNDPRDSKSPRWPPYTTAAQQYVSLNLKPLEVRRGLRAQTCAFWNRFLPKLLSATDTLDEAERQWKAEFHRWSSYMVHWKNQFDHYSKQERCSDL

`CCN(CCCCCC(=O)c1ccc(N2CCCC2)cc1)Cc1ccccc1` [Example 4-2, N-Ethyl-N-(phenylmethyl)-N-[6-(4-pyrrolidinophenyl)-6-oxohexyl]amine fumarate] came in with an IC50 of 0.31 µM. For `CCN(CCCCCC(=O)c1ccc(N2CCCC2)cc1)Cc1ccccc1OC` [Example 4-3, N-Ethyl-N-[(2-methoxyphenyl)methyl]-N-[6-(4-pyrrolidinophenyl)-6-oxohexyl]amine fumarate], where the note is “S₁ fraction of a cerebral cortex homogenate from male Wistar rats as cholinesterase source, incubation 30 minutes, read-out: Anticholinesterase activity, IC₅₀”, the IC50 came out at 0.05 µM.

For the origin of these results see EP0401715B1, “Aminoketone compounds” (priority 1989, dated 1990).
